The source of these data is patent US10273226B2, “Pyrazolyl-heteroarylamides as pesticides” (Bayer Animal Health GmbH, priority 2014, dated 2019).

Common to all, as to type: in vivo
In assay [1] the test system is Ctenocephalides felis. In words: Ctenocephalides felis oral test. The conditions noted are these: application rate 100 ppm in citrated cattle blood; after 2 days. In a few lines: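 Mortality in % was recorded 2 days after about 20 unfed adult cat fleas were allowed to imbibe citrated cattle blood containing the active ingredient through a parafilm membrane. The compound was first taken up in DMSO and then diluted with the blood to the desired concentration.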

Assay [2] concerns Phaedon cochleariae. In words: Phaedon cochleariae spray test. To be noted: application rate 100 g/ha; larvae; after 7 days. In a few lines:
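Chinese cabbage leaf discs were sprayed with the compound formulated in water containing 1000 ppm emulsifier. After drying, they were infested with mustard beetle larvae. Efficacy was scored as % larvae killed after 7 days (100% = all dead, 0% = none).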

Assay [3] has as its system Amblyomma hebraeum. In words: Amblyomma hebraeum test (tick nymphs, immersion). The conditions noted are these: application rate 100 ppm; tick nymphs immersed one minute; after 42 days. As for the experimental part:
(§1) Solvent: dimethyl sulphoxide
To produce an appropriate active ingredient formulation, 10 mg of active ingredient are mixed with 0.5 ml of dimethyl sulphoxide, and the concentrate is diluted with water to the desired concentration.
Tick nymphs (Amblyomma hebraeum) are placed into perforated plastic cups and immersed in the desired concentration for one minute. The ticks are transferred on filter paper into a Petri dish and stored in a climate-controlled cabinet.
After 42 days, the kill in % is determined. 100% means that all of the ticks have been killed; 0% means that none of the ticks have been killed.

Assay [4] deals with Boophilus microplus. In words: Boophilus microplus injection test. To be noted: application rate 20 μg/animal; injection into abdomen; assessed after 7 days. In a few lines: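 Engorged adult female ticks, five per dose, were injected in the abdomen with 1 μl of active ingredient diluted in dimethyl sulphoxide. Animals were kept in dishes under climate control, and egg fertility was assessed after 7 days.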

Assay [5] concerns Musca domestica. In words: Musca domestica test. The conditions noted are these: application rate 100 ppm; adult houseflies; after 2 days. In a few lines:
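Percent kill of adult houseflies is recorded 2 days after exposure, where 100% denotes all flies dead and 0% none. Flies (10 per vessel) feed from a sponge carrying sugar solution and the aqueous-diluted DMSO formulation.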

Assay [6] has as its system Spodoptera frugiperda. In words: Spodoptera frugiperda spray test. To be noted: application rate 100 g/ha; caterpillars; after 7 days. In short, it runs like this:
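Maize leaf discs were sprayed with compound formulated in solvent plus water containing 1000 ppm emulsifier, dried, then infested with Spodoptera frugiperda caterpillars. Efficacy in % mortality was scored after 7 days (100% all killed, 0% none).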

Assay [7] relates to Rhipicephalus sanguineus. In words: Rhipicephalus sanguineus in vitro contact test with adult brown dog ticks. The conditions noted are these: application rate 5 μg/cm^2 (500 g/ha); after 48 h; ticks dead or moribund. In short, it runs like this:
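Test tubes (25 ml) were coated by dissolving active ingredient in acetone p.a., diluting to the required concentration, and spreading 250 μl over the inner walls and base on an orbital shaker at 30 rpm for 2 h. Once dry, 5-10 adult Rhipicephalus sanguineus were added, and tubes were capped with perforated lids and kept horizontal in darkness at room temperature. At 48 h, ticks were knocked down and heated at 45-50° C. for up to 5 min. Those unable to climb away were counted dead or moribund, and efficacy ran from 0% to 100%.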

The test system of assay [8] is Ctenocephalides felis. In words: Ctenocephalides felis in vitro contact test with adult cat fleas. The conditions noted are these: application rate 5 μg/cm^2 (500 g/ha); after 48 h; fleas dead or moribund. In short, it runs like this:
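Test tubes were coated with 250 μl acetone solution of compound, giving 5 μg/cm^2 at 900 ppm, then dried and stocked with 5-10 adult cat fleas. After 48 h at room temperature and ambient humidity, dead or moribund fleas were counted; efficacy given as % (100% = all dead or moribund).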

Assay [9] relates to Lucilia cuprina. In words: Lucilia cuprina test. To be noted: application rate 100 ppm; L1 larvae; after 2 days. In short, it runs like this:
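About 20 L1 larvae placed in vessels with minced horsemeat treated with compound (DMSO concentrate diluted in water) at the desired concentration. Kill (%) scored after 2 days; 100% means all larvae dead, 0% none.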

Assay [10] relates to Tetranychus urticae. In words: Tetranychus urticae spray test, OP-resistant. To be noted: application rate 100 g/ha; after 6 days. In short, it runs like this: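 Bean leaf discs (Phaseolus vulgaris) carrying all stages of OP-resistant mites are sprayed with compound formulated in solvent and emulsifier-containing water. Efficacy (% mites killed) is scored after 6 days.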
Assay [11] deals with Boophilus microplus Parkhurst strain, SP-resistant. In words: Boophilus microplus dip test. To be noted: application rate 100 ppm, assessed after 7 days. As for the experimental part: Boophilus microplus—Dip Test
Test animals: cattle ticks (Boophilus microplus) Parkhurst strain, SP-resistant
as §1
10 mg of active ingredient are dissolved in 0.5 ml of dimethyl sulphoxide. For the purpose of producing a suitable formulation, the active ingredient solution is diluted with water to the concentration desired in each case.
This active ingredient formulation is pipetted into tubes. 8-10 adult engorged female cattle ticks (Boophilus microplus) are transferred into a further tube with holes. The tube is immersed into the active ingredient formulation, and all the ticks are completely wetted. After the liquid has run out, the ticks are transferred on filter discs into plastic dishes and stored in a climate-controlled room.
Efficacy is assessed after 7 days by laying of fertile eggs. Eggs which are not visibly fertile are stored in a climate-controlled cabinet until the larvae hatch after about 42 days. An efficacy of 100% means that none of the ticks has laid any fertile eggs; 0% means that all the eggs are fertile.

The subject of assay [12] is Myzus persicae. In words: Myzus persicae spray test. To be noted: application rate 100 g/ha; after 6 days. In short, it runs like this: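 Chinese cabbage leaf discs infested with all stages of green peach aphid were sprayed with compound formulated in solvent and water containing 1000 ppm emulsifier. Percent kill was assessed after 6 days, where 100% means all aphids dead and 0% none dead.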

As to `Cn1nc(C(F)(F)C(F)(F)F)c(C(F)(F)F)c1-n1cc(-c2ccc(Cl)c(NC(=O)c3ccncc3)c2)cn1` [Example 1-024], the “efficacy (kill in %)” value in assay [1], in [3], in assay [5] and in assay [9] was 100% each time. The efficacy in assay [2], in assay [6], in [7], in [8] and in assay [10] was 100% in each case. Besides, the “efficacy (laying of fertile eggs)” value in [4] and in assay [11] was 100% in each case.

For the compound `Cn1nc(C(F)(F)C(F)(F)F)c(C(F)(F)F)c1-n1cc(-c2ccc(F)c(NC(=O)c3ccncc3)c2)cn1` [Example 1-025], the “efficacy (kill in %)” value in assay [1], in [3], in [5] and in assay [9] was 100% each time. The efficacy in assay [2], in assay [6], in assay [7], in assay [8], in [12] and in assay [10] was 100% in each case. Moreover, the “efficacy (laying of fertile eggs)” value in assay [4] and in assay [11] was 100% each time.

Consider `Cc1ccc(-c2cnn(-c3c(C(F)(F)F)c(C(F)(F)C(F)(F)F)nn3C)c2)cc1NC(=O)c1ccncc1` [Example 1-040], for which the “efficacy (kill in %)” value in assay [1], in [3], in [5] and in [9] was 100% each time. The efficacy in assay [2], in assay [6], in assay [7], in assay [8], in [12] and in assay [10] was 100% throughout. The “efficacy (laying of fertile eggs)” value in assay [4] and in assay [11] was 100% each time.

For the compound `Cn1nc(C(F)(F)C(F)(F)F)c(C(F)(F)F)c1-n1cc(-c2ccc(F)c(NC(=O)c3ccsc3)c2)cn1` [Example 1-041], the “efficacy (kill in %)” value in assay [1], in assay [3] and in [9] was 100% throughout. The efficacy in [2], in assay [6], in assay [7], in [8], in assay [12] and in assay [10] was 100% throughout. In addition, the “efficacy (laying of fertile eggs)” value in assay [4] and in assay [11] was 100% each time.

`Cc1cc(C(=O)Nc2cc(-c3cnn(-c4c(C(F)(F)F)c(C(F)(F)C(F)(F)F)nn4C)c3)ccc2F)ccn1` [Example 1-087]: the “efficacy (kill in %)” value in assay [1] is reported as 100%; in [3], 90%; in [5], 100%; in [9], 100%. For the same compound, the efficacy in [2] is listed as 100%; in assay [6] it was 100%; in assay [7] it was 80%; in assay [8], 100%; in assay [12] it was 90%; in assay [10], 100%. Moreover, the “efficacy (laying of fertile eggs)” value in assay [4] and in assay [11] was 100% each time.
